Columns and labels:
[1] = DRUGMATRIX: Sodium/nucleoside co-transporter radioligand binding (ligand: nitrobenzylthioinosine); format: cell membranes, Cavia porcellus, Dunkin-Hartley, Cerebral cortex, Membrane; conditions: Not Active = under 50% inhibition at 10 µM
[2] = DRUGMATRIX: Calcium Channel Type L, Phenylalkylamine radioligand binding (ligand: [3H] (-)-Desmethoxyverapamil (D-888)); format: cell membranes, Rattus norvegicus, Wistar, Brain, Membrane; conditions: Not Active = under 50% inhibition at 10 µM
[3] = target: C-C chemokine receptor type 5 (Homo sapiens, UniProt P51681); format: cell membranes, Membrane; conditions: hek293; further: in other assays of this panel Not Active means under 50% inhibition at 10 µM
Chain of C-C chemokine receptor type 5 (P51681 whole entry): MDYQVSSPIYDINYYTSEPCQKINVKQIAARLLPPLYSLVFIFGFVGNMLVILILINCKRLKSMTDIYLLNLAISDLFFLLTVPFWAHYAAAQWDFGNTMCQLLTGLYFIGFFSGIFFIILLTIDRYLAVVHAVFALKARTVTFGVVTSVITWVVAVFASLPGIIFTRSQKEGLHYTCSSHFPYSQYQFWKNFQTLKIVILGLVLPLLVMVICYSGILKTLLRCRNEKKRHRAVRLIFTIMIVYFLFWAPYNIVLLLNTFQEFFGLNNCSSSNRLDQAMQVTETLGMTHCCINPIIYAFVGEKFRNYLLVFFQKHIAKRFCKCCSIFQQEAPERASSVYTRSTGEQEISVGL

[4] = target: T1, Angiotensin-converting enzyme (Oryctolagus cuniculus, UniProt P12822); format: tissue-based, Lung;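 further: enzymatic inhibition of angiotensin-converting enzyme measured with FAPGG as the substrate; in other assays of this panel Not Active means under 50% inhibition at 10 µM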
T1 sequence (P12822 whole entry): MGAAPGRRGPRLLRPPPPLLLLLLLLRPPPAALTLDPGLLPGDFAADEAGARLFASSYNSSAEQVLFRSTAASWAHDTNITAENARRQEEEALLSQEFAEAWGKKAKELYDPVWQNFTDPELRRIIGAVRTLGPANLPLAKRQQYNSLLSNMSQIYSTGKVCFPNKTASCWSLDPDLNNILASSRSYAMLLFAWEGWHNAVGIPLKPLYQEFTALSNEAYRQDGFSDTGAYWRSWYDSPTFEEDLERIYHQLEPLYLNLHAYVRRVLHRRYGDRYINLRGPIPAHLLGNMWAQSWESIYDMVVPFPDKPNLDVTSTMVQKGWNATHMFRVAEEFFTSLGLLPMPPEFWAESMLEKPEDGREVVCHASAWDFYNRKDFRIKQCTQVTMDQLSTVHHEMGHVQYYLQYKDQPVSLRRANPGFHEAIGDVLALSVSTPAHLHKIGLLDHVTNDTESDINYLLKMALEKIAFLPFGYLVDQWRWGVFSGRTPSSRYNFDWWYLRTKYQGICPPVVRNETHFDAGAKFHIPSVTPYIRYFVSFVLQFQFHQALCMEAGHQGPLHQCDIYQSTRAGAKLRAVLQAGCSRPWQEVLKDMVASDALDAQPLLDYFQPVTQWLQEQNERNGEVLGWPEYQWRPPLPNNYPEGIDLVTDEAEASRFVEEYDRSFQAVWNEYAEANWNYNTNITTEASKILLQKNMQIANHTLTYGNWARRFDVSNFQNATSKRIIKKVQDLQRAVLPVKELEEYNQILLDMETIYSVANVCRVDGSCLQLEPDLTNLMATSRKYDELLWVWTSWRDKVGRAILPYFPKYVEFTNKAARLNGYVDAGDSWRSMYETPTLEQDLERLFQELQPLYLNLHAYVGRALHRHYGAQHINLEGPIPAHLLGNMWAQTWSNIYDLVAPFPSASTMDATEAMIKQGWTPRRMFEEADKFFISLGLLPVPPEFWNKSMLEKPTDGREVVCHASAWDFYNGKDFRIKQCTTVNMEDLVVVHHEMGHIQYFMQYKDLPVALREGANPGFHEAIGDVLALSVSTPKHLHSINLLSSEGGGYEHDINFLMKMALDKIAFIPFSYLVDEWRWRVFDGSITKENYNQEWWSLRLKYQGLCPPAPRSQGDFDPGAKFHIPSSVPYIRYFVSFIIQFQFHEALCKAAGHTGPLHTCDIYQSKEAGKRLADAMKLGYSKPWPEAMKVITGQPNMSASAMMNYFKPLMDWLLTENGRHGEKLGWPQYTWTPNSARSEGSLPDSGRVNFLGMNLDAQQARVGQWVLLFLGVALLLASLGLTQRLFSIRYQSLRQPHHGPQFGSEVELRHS

[5] = target: T2, Caspase-1 (Homo sapiens, UniProt P29466); set-up: species or system Escherichia coli;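 further: Caspase-1 enzyme inhibition assay with a peptide substrate; in other assays of this panel Not Active means under 50% inhibition at 10 µM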
T2 sequence (P29466 whole entry): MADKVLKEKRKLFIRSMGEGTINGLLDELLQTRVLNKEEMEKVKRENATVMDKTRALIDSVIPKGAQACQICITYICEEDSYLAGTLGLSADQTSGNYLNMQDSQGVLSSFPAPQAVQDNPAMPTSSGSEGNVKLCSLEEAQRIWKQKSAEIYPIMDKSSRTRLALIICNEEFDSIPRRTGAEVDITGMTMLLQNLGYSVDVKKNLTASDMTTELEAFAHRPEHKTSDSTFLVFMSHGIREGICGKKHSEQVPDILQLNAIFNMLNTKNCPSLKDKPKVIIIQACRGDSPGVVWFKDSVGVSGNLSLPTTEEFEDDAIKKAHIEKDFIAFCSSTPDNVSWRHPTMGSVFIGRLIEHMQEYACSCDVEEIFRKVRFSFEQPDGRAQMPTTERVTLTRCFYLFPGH

[6] = target: T3, Cathepsin G (Homo sapiens, UniProt P08311); format: tissue-based; conditions: neutrophil;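 further: inhibition of Cathepsin G enzyme activity, tested on an AMC-conjugated peptide substrate; in other assays of this panel Not Active means under 50% inhibition at 10 µM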
T3 sequence (P08311 whole entry): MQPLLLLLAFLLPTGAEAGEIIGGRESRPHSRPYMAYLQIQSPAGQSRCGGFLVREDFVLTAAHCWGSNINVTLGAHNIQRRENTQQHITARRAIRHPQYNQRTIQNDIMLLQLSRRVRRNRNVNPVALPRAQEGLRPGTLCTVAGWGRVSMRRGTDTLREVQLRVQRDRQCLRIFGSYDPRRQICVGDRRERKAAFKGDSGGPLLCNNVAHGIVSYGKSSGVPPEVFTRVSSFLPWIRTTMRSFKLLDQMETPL

[7] = target: Voltage-gated inwardly rectifying potassium channel KCNH2 (Homo sapiens, UniProt Q12809); conditions: hek293; further: in other assays of this panel Not Active means under 50% inhibition at 10 µM
Chain of Voltage-gated inwardly rectifying potassium channel KCNH2 (Q12809 whole entry): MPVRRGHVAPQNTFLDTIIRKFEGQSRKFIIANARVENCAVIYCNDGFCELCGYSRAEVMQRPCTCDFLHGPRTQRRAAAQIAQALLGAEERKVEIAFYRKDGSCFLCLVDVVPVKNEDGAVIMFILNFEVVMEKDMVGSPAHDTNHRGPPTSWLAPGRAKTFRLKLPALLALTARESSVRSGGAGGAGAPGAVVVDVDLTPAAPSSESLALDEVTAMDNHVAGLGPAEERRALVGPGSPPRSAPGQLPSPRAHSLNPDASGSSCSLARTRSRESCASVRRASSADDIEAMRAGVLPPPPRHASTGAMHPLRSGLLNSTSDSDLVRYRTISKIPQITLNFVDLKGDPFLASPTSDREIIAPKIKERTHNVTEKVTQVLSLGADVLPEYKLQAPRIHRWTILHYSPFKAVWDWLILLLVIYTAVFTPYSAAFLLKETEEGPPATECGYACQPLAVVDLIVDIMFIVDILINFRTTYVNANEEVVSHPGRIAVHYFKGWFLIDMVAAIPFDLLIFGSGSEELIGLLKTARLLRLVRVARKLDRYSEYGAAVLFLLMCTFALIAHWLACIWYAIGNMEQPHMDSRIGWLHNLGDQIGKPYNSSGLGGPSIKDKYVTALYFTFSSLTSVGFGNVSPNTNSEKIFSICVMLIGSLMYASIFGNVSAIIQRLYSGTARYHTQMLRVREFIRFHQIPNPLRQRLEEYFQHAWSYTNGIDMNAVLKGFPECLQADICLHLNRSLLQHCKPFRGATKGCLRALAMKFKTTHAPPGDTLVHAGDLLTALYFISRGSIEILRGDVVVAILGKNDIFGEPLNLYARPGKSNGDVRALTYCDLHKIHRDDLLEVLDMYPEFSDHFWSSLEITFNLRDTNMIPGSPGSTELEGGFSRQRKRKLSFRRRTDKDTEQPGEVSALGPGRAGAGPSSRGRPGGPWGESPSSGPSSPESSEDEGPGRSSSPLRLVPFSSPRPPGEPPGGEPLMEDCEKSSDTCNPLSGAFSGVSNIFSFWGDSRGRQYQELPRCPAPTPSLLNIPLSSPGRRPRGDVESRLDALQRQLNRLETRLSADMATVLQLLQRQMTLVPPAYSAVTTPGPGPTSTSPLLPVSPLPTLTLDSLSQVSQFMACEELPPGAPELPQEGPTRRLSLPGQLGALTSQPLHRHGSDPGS

SMILES | IC50 [1] | Ki [1] | IC50 [2] | Ki [2] | IC50 [3] | IC50 [4] | IC50 [5] | IC50 [6] | IC50 [7] | Ki [7] | IC50 ([1]; read-out: IC50) | Ki ([1]; read-out: Ki) | IC50 ([2]; read-out: IC50) | Ki ([2]; read-out: Ki)
N[C@@H](Cc1ccc(N(CCCl)CCCl)cc1)C(=O)O | Not Active | Not Active | Not Active | Not Active | Not Active | Not Active | Not Active | Not Active | Not Active | Not Active | – | – | – | –
CC(C)N1CCN(c2ccc(OCC3COC(Cn4cncn4)(c4ccc(Cl)cc4Cl)O3)cc2)CC1 (centres undefined) [TERCONAZOLE] | – | – | – | – | Not Active | Not Active | Not Active | Not Active | Not Active | Not Active | 12.4 µM | 4.24 µM | 3.46 µM | 3.36 µM
Cc1nc2n(c(=O)c1CCN1CCC(c3noc4cc(F)ccc34)CC1)CCCC2 [RISPERIDONE] | – | – | – | – | Not Active | Not Active | Not Active | Not Active | – | – | – | – | – | –
N[C@@H]1[C@H]2CN(c3nc4c(cc3F)c(=O)c(C(=O)O)cn4-c3ccc(F)cc3F)C[C@@H]12 [TROVAFLOXACIN] | Not Active | Not Active | Not Active | Not Active | Not Active | Not Active | Not Active | Not Active | Not Active | Not Active | – | – | – | –
O=c1ncn2nc(Sc3ccc(F)cc3F)ccc2c1-c1c(Cl)cccc1Cl [NEFLAMAPIMOD] | Not Active | Not Active | Not Active | Not Active | Not Active | Not Active | Not Active | Not Active | Not Active | Not Active | – | – | – | –
CCCCc1oc2ccccc2c1C(=O)c1cc(I)c(OCCN(CC)CC)c(I)c1 [AMIODARONE] | – | – | – | – | Not Active | Not Active | Not Active | Not Active | – | – | – | – | – | –
CC[C@]1(O)C[C@H]2CN(CCc3c([nH]c4ccccc34)[C@@](C(=O)OC)(c3cc4c(cc3OC)N(C=O)[C@H]3[C@@](O)(C(=O)OC)[C@H](OC(C)=O)[C@]5(CC)C=CCN6CC[C@]43[C@@H]65)C2)C1 [VINCRISTINE] | Not Active | Not Active | Not Active | Not Active | Not Active | Not Active | Not Active | Not Active | Not Active | Not Active | – | – | – | –
Nc1nc2ccc(OC(F)(F)F)cc2s1 [RILUZOLE] | Not Active | Not Active | Not Active | Not Active | Not Active | Not Active | Not Active | Not Active | – | – | – | – | – | –
N[C@@H](Cc1cc(I)c(Oc2ccc(O)c(I)c2)c(I)c1)C(=O)O [LIOTHYRONINE] | – | – | – | – | Not Active | Not Active | Not Active | Not Active | Not Active | Not Active | – | – | – | –
C[C@@H]1CN(c2c(F)c(N)c3c(=O)c(C(=O)O)cn(C4CC4)c3c2F)C[C@H](C)N1 [SPARFLOXACIN] | Not Active | Not Active | Not Active | Not Active | Not Active | Not Active | Not Active | Not Active | – | – | – | – | – | –
CN1CCN(CCCN2c3ccccc3Sc3ccc(Cl)cc32)CC1 [PROCHLORPERAZINE] | – | – | – | – | Not Active | Not Active | Not Active | Not Active | – | – | – | – | – | –
CCOC(=O)N1CCC(=C2c3ccc(Cl)cc3CCc3cccnc32)CC1 [LORATADINE] | Not Active | Not Active | Not Active | Not Active | Not Active | Not Active | Not Active | Not Active | – | – | – | – | – | –
Nc1nc2nc[nH]c2c(=S)[nH]1 [THIOGUANINE] | Not Active | Not Active | Not Active | Not Active | Not Active | Not Active | Not Active | Not Active | – | – | – | – | – | –
CC/C(=C(\c1ccccc1)c1ccc(OCCN(C)C)cc1)c1ccccc1 [TAMOXIFEN] | – | – | – | – | Not Active | Not Active | Not Active | Not Active | – | – | – | – | – | –
